Test results reported in patent US20030187240A1, “2' -modified oligonucleotides” (ISIS Pharmaceuticals, Inc., priority 1990, published 2003).
Entries after “also recorded” stand apart in the source; their conditions may differ. Strand notation (5' to 3'): a small letter for the sugar, then the base; units joined by * are phosphorothioate-linked, units joined directly phosphodiester-linked; [ ] holds rarer units or linkages, { } end groups; capitals alone tell only the bases. [OPr] = 2'-O-propyl nucleotide; [OPent] = 2'-O-pentyl nucleotide; d = 2'-deoxy (DNA); m = 2'-O-methyl; f = 2'-fluoro

How the values were obtained:
PKC-α mRNA = PKC-α mRNA levels by Northern blot analysis; type: cell-based, human; conditions: FIGS. 3, 4 and 5; result in words
Description: Oligonucleotides having SEQ ID NO: 4 were synthesized as uniformly phosphorothioate chimeric oligonucleotides having a centered deoxy gap of varying lengths flanked by 2′-O-methylated regions. These oligonucleotides (500 nM concentration) were tested for effects on PKC-α mRNA levels by Northern blot analysis.

[1] = tested on: 25 mer oligoribonucleotide complement; test: Melting curves of 2′-modified 17-mers with 7-deoxy gap; type: binding; conditions: 17-mer with 7-deoxy gap hybridized with 25 mer oligoribonucleotide complement
From the text: This is attributed to these phosphodiester compounds being substrates for nucleases that degrade such phosphodiester compounds thus preventing them potentially activating RNase H. Other sugar modifications: The effects of other 2′ sugar modifications besides 2′-O-methyl on antisense activity in chimeric oligonucleotides have been examined. These modifications are listed in Table 4, along with the Tm values obtained when 17 mer oligonucleotides having 2′-modified nucleotides flanking a 7-base deoxy gap were hybridized with a 25 mer oligoribonucleotide complement as described in Example 25. […] As alkyl length increased, Tm decreased.
Absorbance vs. temperature curves were measured at 260 nm using a Gilford 260 spectrophotometer interfaced to an IBM PC computer and a Gilford Response II spectrophotometer. The buffer contained 100 mM Na^+, 10 mM phosphate and 0.1 mM EDTA, pH 7. Oligonucleotide concentration was 4 μM each strand determined from the absorbance at 85° C. and extinction coefficients calculated according to Puglisi and Tinoco [Methods in Enzymol., 180, 304 (1989). Tm values, free energies of duplex formation and association constants were obtained from fits of data to a two state model with linear sloping baselines. [Petersheim and Turner, Biochemistry, 22, 256 (1983). Reported parameters are averages of at least three experiments. For some oligonucleotides, free energies of duplex formation were also obtained from plots of Tm^−1 vs log10 (concentration). Borer et al., J. Mol. Biol., 86, 843 (1974).

H-ras = test: ras transactivation reporter gene assay; type: cell-based; conditions: for IC50: antisense activity against H-ras, 17-mer with 7-deoxy gap
From the text: The expression plasmid pSV2-oli, containing an activated (codon 12, GGC→GTC) H-ras cDNA insert under control of the constitutive SV40 promoter, was a gift from Dr. Bruno Tocque (Rhone-Poulenc Sante, Vitry, France). This plasmid was used as a template to construct, by PCR, a H-ras expression plasmid under regulation of the steroid-inducible mouse mammary tumor virus (MMTV) promoter. To obtain H-ras coding sequences, the 570 bp coding region of the H-ras gene was amplified by PCR. The PCR primers were designed with unique restriction endonuclease sites in their 5′-regions to facilitate cloning. The PCR product containing the coding region of the H-ras codon 12 mutant oncogene was gel purified, digested, and gel purified once again prior to cloning. This construction was completed by cloning the insert into the expression plasmid pMAMneo (Clontech Laboratories, Calif.).
The ras-responsive reporter gene pRD053 was used to detect ras expression. [Owen et al., Proc. Natl. Acad. Sci. U.S.A., 87, 3866 (1990).

[2] = tested on: crude HeLa cellular extracts
ras mRNA = test: Northern blot analysis of ras expression in T24 cells; type: cell-based, human; conditions: result in words
Description: The human urinary bladder cancer cell line T24 was obtained from the American Type Culture Collection (Rockville Md.). Cells were grown in McCoy's 5A medium with L-glutamine (GIBCO-BRL, Gaithersburg, Md.), supplemented with 10% heat-inactivated fetal calf serum and 50 U/ml each of penicillin and streptomycin. Cells were seeded on 100 mm plates. When they reached 70% confluency, they were treated with oligonucleotide. Plates were washed with 10 ml prewarmed PBS and 5 ml of OptiMEM (GIBCO) reduced-serum medium containing 2.5 μl DOTMA. Oligonucleotide was then added to the desired concentration. After 4 hours of treatment, the medium was replaced with McCoy's medium. Cells were harvested 48 hours after oligonucleotide treatment and RNA was isolated using a standard CsCl purification method. [Kingston in Current Protocols in Molecular Biology, F. M. Ausubel, R. Brent, R. E. Kingston, D. D. Moore, J. A. Smith, J. G. Seidman and K. Strahl, Eds., John Wiley and Sons, New York.] The human epithelioid carcinoma cell line HeLa 229 was obtained from the American Type Culture Collection (Bethesda, Md.). HeLa cells were maintained as monolayers on 6-well plates in Dulbecco's Modified Eagle's medium (DMEM) supplemented with 10 fetal bovine serum and 100 U/ml penicillin. Treatment with oligonucleotide and isolation of RNA were essentially as described above for T24 cells.
Northern hybridization: 10 μg of each RNA was electrophoresed on a 1.2% agarose/formaldehyde gel and transferred overnight to GeneBind 45 nylon membrane (Pharmacia LKB, Piscataway, N.J.) using standard methods. [Kingston in Current Protocols in Molecular Biology, F. M. Ausubel, R. Brent, R. E. Kingston, D. D. Moore, J. A. Smith, J. G. Seidman and K. Strahl, Eds., John Wiley and Sons, New York.] RNA was UV-crosslinked to the membrane. Double-stranded ^32P-labeled probes were synthesized using the Prime a Gene labeling kit (Promega, Madison Wis.). The ras probe was a SalI-NheI fragment of a cDNA clone of the activated (mutant) H-ras mRNA having a GGC-to-GTC mutation at codon-12. The control probe was G3PDH. Blots were prehybridized for 15 minutes at 68° C. with the QuickHyb hybridization solution (Stratagene, La Jolla, Calif.). The heat-denatured radioactive probe (2.5×10^6 counts/2 ml hybridization solution) mixed with 100 μl of 10 mg/ml salmon sperm DNA was added and the membrane was hybridized for 1 hour at 68° C. The blots were washed twice for 15 minutes at room temperature in 2×SSC/0.1% SDS and once for 30 minutes at 60° C. with 0.1×SSC/0.1%SDS. Blots were autoradiographed and the intensity of signal was quantitated using an ImageQuant PhosphorImager (Molecular Dynamics, Sunnyvale, Calif.). Northern blots were first hybridized with the ras probe, then stripped by boiling for 15 minutes in 0.1×SSC/0.1%SDS and rehybridized with the control G3PDH probe to check for correct sample loading.

[3] = tested on: codon-12 point mutation of mutant (activated) H-ras RNA; type: cell-based, human

5352 (AAAACGTCAGCCATGGTCCC; sugars from the 5' end m6 d6 m8, all phosphorothioate, methylation of C and T or U not given here) [Oligonucleotide 5352]
effect on PKC-α mRNA levels (PKC-α mRNA): show reduction of PKC-α mRNA; also recorded: most active

O-Pentyl: 17-mer CCACACCGACGGCGCCC with 2′-O-pentyl nucleotides flanking a 7-base deoxy gap (sugars from the 5' end [OPent]5 d7 [OPent]5, backbone and methylation of C not given here)
Tm (° C.) [1]: 6 °C | IC50 (H-ras): 0.15 µM

3522 (AsAsAsAsCsGsTsCsAsGsCsCsAsTsGsGsTsCsCsC; 2'-O-methyl/deoxy chimeric, phosphorothioate, as printed in the source, key not given here) [Oligonucleotide 3522]
effect on PKC-α mRNA levels (PKC-α mRNA): show reduction of PKC-α mRNA

CsCsAsCsAsCsCsGoAoCsGsGsCsGsCsCsC [Oligonucleotide 4546]
T½ [2]: approximately 5.5 hours

4248 (CCACACCGACGGCGCCC; 2'-O-methyl wings, mixed phosphorothioate/phosphodiester, pattern not given here) [Oligonucleotide 4248]
degradation in HeLa cell extract [2]: no degradation after 5 hours

7294 (AAAACGTCAGCCATGGTCCC; sugars from the 5' end [OPr]6 d14, linkages s1 o4 s9 o4 s1 (s phosphorothioate, o phosphodiester), methylation of C not given here) [Oligonucleotide 7294]
effect on PKC-α mRNA levels (PKC-α mRNA): more active than their 2′-O-methyl counterparts at lowering PKC-α mRNA levels

CsCsAsCsAsCsCoGoAoCoGsGsCsGsCsCsC [Oligonucleotide 4593]
T½ [2]: ~3.2 h

4233 (CCACACCGACGGCGCCC; 2'-O-methyl wings, mixed phosphorothioate/phosphodiester, pattern not given here) [Oligonucleotide 4233]
T½ [2]: 7 h

7273 (AAAACGTCAGCCATGGTCCC; 2'-O-propyl/deoxy, mixed P=S/P=O backbone, chemistry not fully specified) [Oligonucleotide 7273]
effect on PKC-α mRNA levels (PKC-α mRNA): more active than their 2′-O-methyl counterparts at lowering PKC-α mRNA levels

C^FC^FA^F C^FA^FCd CdGdAd CdGdGd C^FG^FC^F C^FC^F [Oligonucleotide 4690]
Tm (° C.) ([1]; listed as 2′-fluoro chimeric oligonucleotide): highest Tm of the series | Tm (° C.) ([1]; listed as Fluoro): 7 °C | antisense activity against H-ras (inhibition of ras expression) (H-ras): most active | IC50 (H-ras): 0.01 µM

6632 (dT*dT*dC*dT*dC*dG*dC*dT*dG*dG*dT*dG*dA*dG*dT*dT*dT*dC; antisense) [Oligonucleotide 6632]
effect on PKC-α mRNA levels (PKC-α mRNA): most active in reducing PKC-α mRNA levels

7083 (TCTCGCTGGTGAGTTTC; antisense; sugars from the 5' end [OPr]3 d9 [OPr]5, all phosphorothioate, methylation of C not given here) [Oligonucleotide 7083]
effect on PKC-α mRNA levels (PKC-α mRNA): most active in reducing PKC-α mRNA levels

CsCsAsCsAsCsCsGoAoCoGsGsCsGsCsCsC [Oligonucleotide 4551]
T½ [2]: ~3.75 h

7082 (dT*dC*dT*dC*dG*dC*dT*dG*dG*dT*dG*dA*dG*dT*dT*dT*dC; antisense) [Oligonucleotide 7082]
effect on PKC-α mRNA levels (PKC-α mRNA): most active in reducing PKC-α mRNA levels

6653 (TTCTCGCTGGTGAGTTTC; antisense; sugars from the 5' end [OPr]3 d11 [OPr]4, all phosphorothioate, methylation of C not given here) [Oligonucleotide 6653]
effect on PKC-α mRNA levels (PKC-α mRNA): most active in reducing PKC-α mRNA levels

C^MC^MA^M C^MA^MCd CdGdAd CdGdGd C^MG^MC^M C^MC^M [Oligonucleotide 3985]
Tm (° C.) [1]: 7 °C | IC50 (H-ras): 0.02 µM | inhibition of ras expression in T24 cells (ras mRNA): inhibited

Oligonucleotide 4689: SEQ ID NO: 1, 2′-fluoro-modified nucleotides flanking a 5-deoxy gap (CCACACCGACGGCGCCC; sugars from the 5' end f6 d5 f6, backbone and methylation of C not given here)
antisense activity against H-ras (inhibition of ras expression) (H-ras): also active

O-Propyl: 17-mer CCACACCGACGGCGCCC with 2′-O-propyl nucleotides flanking a 7-base deoxy gap (sugars from the 5' end [OPr]5 d7 [OPr]5, backbone and methylation of C not given here)
Tm (° C.) [1]: 7 °C | IC50 (H-ras): 0.07 µM | inhibition of ras expression in T24 cells (ras mRNA): inhibited

7008 (mA*mAmAmAmCdG*dT*dC*dA*dG*dC*dC*dA*dT*dGdGdTdCdC*dC) [Oligonucleotide 7008]
effect on PKC-α mRNA levels (PKC-α mRNA): show reduction of PKC-α mRNA

CsCsAsCsAsCsCoGoAoCoGoGsCsGsCsCsC [Oligonucleotide 4606]
T½ [2]: 1.75 h

CsCsAsCoAoCoCoGoAoCoGoGoCoGsCsCsC [Oligonucleotide 4241]
effect on ras expression (ras-luciferase reporter system), chimeric backbone-modified oligonucleotides [3]: completely inactive | T½ [2]: 0.9 h
